Laboratory results taken from US20190047966A1, “NOVEL COMPOUND AND PHARMACOLOGICALLY ACCEPTABLE SALT THEREOF” (MEIJI SEIKA PHARMA CO., LTD., priority 2016, published 2019).
Where a name gives a salt, the structure may show the parent alone.

Assays:
[1] = biological target: T1, human histamine H4 receptor (Homo sapiens, UniProt Q9H3N8); assay: Evaluation of H4 Receptor Function ([35S]GTPγS binding); type: biochemical; details: [35S]GTPγS binding, CHO-K1 membrane, 0.1 μM histamine; read-out: Evaluation of H4 Receptor Function (IC50 value, antagonistic effect)
T1 construct: purchased PerkinElmer Inc; host or cells: CHO-K1
T1 sequence (Q9H3N8 whole entry): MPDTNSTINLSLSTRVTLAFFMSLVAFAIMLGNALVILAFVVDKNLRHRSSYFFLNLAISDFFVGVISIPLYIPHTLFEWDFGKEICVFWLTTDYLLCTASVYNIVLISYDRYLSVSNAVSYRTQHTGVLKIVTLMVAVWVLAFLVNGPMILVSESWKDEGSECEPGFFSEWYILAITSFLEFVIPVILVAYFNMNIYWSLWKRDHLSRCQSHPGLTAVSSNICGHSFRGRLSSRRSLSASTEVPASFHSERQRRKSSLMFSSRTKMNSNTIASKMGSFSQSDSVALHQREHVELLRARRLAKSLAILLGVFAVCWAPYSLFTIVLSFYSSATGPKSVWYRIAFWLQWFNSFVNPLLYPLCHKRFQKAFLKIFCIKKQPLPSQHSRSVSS
Experimental: The antagonistic effect was evaluated by the method described below. Membrane preparation from recombinant CHO-K1 cell expressing the human histamine H4 receptor (PerkinElmer Inc.), 10 μM GDP, 0.1 μM histamine, and the compounds dissolved in DMSO were reacted at 30° C. for 20 minutes in a buffering solution containing 20 mM HEPES, pH 7.4, 100 mM NaCl, 10 mM MgCl2, 1 mM DTT, and 1 mM EDTA on an assay plate. Thereafter, SPA beads (Amersham plc) were added, followed by incubation for 60 minutes, and further 0.3 nM [^35S]GTPγS (PerkinElmer Inc.) was added, followed by incubation for 30 minutes.

[2] = biological target: T1, human histamine H4 receptor; assay: Evaluation of Human H4 Receptor Affinity ([3H]histamine binding); details: inhibition constant Ki, CHO-K1 membrane preparation, read-out: Evaluation of H4 Receptor Affinity
In short: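 Membranes from CHO-K1 cells expressing human H4 receptor incubated with 8.2 nM [3H]histamine and compound for 90 min at 25 °C in 50 mM Tris-HCl pH 7.4, 1.25 mM EDTA, then filtered and counted. Nonspecific binding defined with 1.0 μM histamine; Ki from IC50 by Cheng-Prusoff using Kd 5.7 nM.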

[3] = biological target: T2, human histamine H1 receptor (Homo sapiens, UniProt P35367); assay: Evaluation of Human H1 Receptor Affinity ([3H]pyrilamine binding); set-up: purchased PerkinElmer Inc; host or cells: CHO-K1; details: inhibition constant Ki, CHO-K1 membrane preparation
T2 sequence (P35367 whole entry): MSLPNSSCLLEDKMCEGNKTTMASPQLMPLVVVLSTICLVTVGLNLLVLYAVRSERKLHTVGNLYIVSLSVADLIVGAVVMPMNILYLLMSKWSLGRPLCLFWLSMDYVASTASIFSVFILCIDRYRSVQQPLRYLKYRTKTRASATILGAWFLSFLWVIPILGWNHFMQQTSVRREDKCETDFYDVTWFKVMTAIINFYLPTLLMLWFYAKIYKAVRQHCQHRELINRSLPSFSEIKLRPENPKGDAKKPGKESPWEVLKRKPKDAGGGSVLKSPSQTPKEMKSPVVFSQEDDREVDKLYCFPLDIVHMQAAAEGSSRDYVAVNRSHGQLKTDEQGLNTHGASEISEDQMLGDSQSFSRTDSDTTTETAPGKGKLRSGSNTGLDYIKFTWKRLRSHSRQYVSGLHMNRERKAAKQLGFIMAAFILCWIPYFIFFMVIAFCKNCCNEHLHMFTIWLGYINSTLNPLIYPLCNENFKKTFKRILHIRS
In short: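 Ki values are Cheng-Prusoff conversions of IC50 (Kd 1.1 nM) from radioligand displacement of 1.2 nM [3H]pyrilamine, with 1.0 μM pyrilamine defining nonspecific binding.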

[4] = biological target: T2, human histamine H1 receptor; assay: Evaluation of Human H1 Receptor Function (GeneBLAzer H1-NFAT-bla HEK 293T cells); type: cell-based; details: histamine 30 nM, read-out: Evaluation of H1 Receptor Function (IC50 value, antagonistic effect)
Experimental: Test Example 3: Evaluation of Human H1 Receptor Function
The antagonistic effect was evaluated by the method described below. GeneBLAzer® H1-NFAT-bla HEK 293T-cells (Invitrogen Corporation, recombinant cells expressing the human histamine H1 receptor) were incubated at 37° C. for 30 minutes in the presence of the test compounds dissolved in DMSO in a high glucose Dulbecco's Modified Eagle Medium (GlutaMAX, containing 10% fetal bovine serum, 100 μM nonessential amino acids, 25 mM HEPES, 100 U/mL penicillin, and 100 μg/mL streptomycin), and histamine was added such that the final concentration became 30 nM, followed by further incubation for 4.5 hours. Then, a mixture of LiveBLAzer™ FRET-B/G Loading Kit (Invitrogen Corporation) and Solution D (Invitrogen Corporation) was added, followed by leaving to stand at room temperature for 2 hours under shaded conditions. Thereafter, the fluorescence intensity was measured under two conditions of 400 nm/460 nm and 400 nm/535 nm (excitation light/fluorescence) by using a multilabel counter (EnVision: PerkinElmer Inc.). The 50% inhibitory concentration (IC50 value) was calculated in accordance with (measured value−blank measured value at 400 nm/460 nm)/(measured value−blank measured value at 400 nm/535 nm) of each test sample.

Structure (SMILES) | IC50 [1] | Ki [2] | Ki [3] | IC50 [4]
C[C@]1(C(=O)O)C[C@H](OCCN2CCN(c3nc(N)nc4c3CCc3cc(OCc5ccc(OC(F)(F)F)cc5)ccc3-4)CC2)C1 [Example 32, trans-3-(2-(4-(2-amino-8-((4-(trifluoromethoxy)benzyl)oxy)-5,6-dihydrobenzo[h]quinazolin-4-yl)piperazin-1-yl)ethoxy)-1-methylcyclobutane-1-carboxylic acid] | < 200 nM | < 100 nM | < 100 nM | < 200 nM
Nc1nc2c(c(N3CCN(CCO[C@H]4C[C@@H](CC(=O)O)C4)CC3)n1)CCc1cc(OCc3ccc(OC(F)(F)F)cc3)ccc1-2 [Example 36, cis-2-(3-(2-(4-(2-amino-8-((4-(trifluoromethoxy)benzyl)oxy)-5,6-dihydrobenzo[h]quinazolin-4-yl)piperazin-1-yl)ethoxy)cyclobutyl)acetic acid] | < 200 nM | < 100 nM | < 100 nM | < 200 nM
Nc1nc2c(c(N3CCN(CCO[C@@H]4CO[C@@H](C(=O)O)C4)CC3)n1)CCc1cc(OCc3ccc(OC(F)(F)F)cc3)ccc1-2 [Example 37, (2R,4S)-4-(2-(4-(2-amino-8-((4-(trifluoromethoxy)benzyl)oxy)-5,6-dihydrobenzo[h]quinazolin-4-yl)piperazin-1-yl)ethoxy)tetrahydrofuran-2-carboxylic acid] | < 200 nM | < 100 nM | < 100 nM | < 200 nM
NC(=O)N1CC(COCCN2CCN(c3nc(N)nc4c3CCc3cc(OCc5ccc(OC(F)(F)F)cc5)ccc3-4)CC2)C1 [Example 39, 3-((2-(4-(2-amino-8-((4-(trifluoromethoxy)benzyl)oxy)-5,6-dihydrobenzo[h]quinazolin-4-yl)piperazin-1-yl)ethoxy)methyl)azetidine-1-carboxamide] | < 200 nM | < 100 nM | < 100 nM | < 200 nM
CN1CCN(c2nc(N)nc3c2CCc2cc(NS(=O)(=O)c4ccc(Cl)cc4)ccc2-3)CC1 [Example 42, N-(2-amino-4-(4-methylpiperazin-1-yl)-5,6-dihydrobenzo[h]quinazolin-8-yl)-4-chlorobenzenesulfonamide] | 200 to 2000 nM | < 100 nM | < 100 nM | < 200 nM
CN1CCN(c2nc(N)nc3c2CCc2cc(NS(=O)(=O)c4ccc(OC(F)(F)F)cc4)ccc2-3)CC1 [Example 54, N-(2-amino-4-(4-methylpiperazin-1-yl)-5,6-dihydrobenzo[h]quinazolin-8-yl)-4-(trifluoromethoxy)benzenesulfonamide] | 200 to 2000 nM | < 100 nM | < 100 nM | < 200 nM
CN(C)[C@H]1CCN(c2nc(N)nc3c2CCc2cc(OCc4ccccc4)ccc2-3)C1 [Example 102, (S)-8-(benzyloxy)-4-(3-(dimethylamino)pyrrolidin-1-yl)-5,6-dihydrobenzo[h]quinazolin-2-amine] | < 200 nM | < 100 nM | 100 to 500 nM | 200 to 2000 nM
CS(=O)(=O)NCCOCCOCCN1CCN(c2nc(N)nc3c2CCc2cc(OCc4ccc(Cl)cc4)ccc2-3)CC1 [Example 111, N-(2-(2-(2-(4-(2-amino-8-((4-chlorobenzyl)oxy)-5,6-dihydrobenzo[h]quinazolin-4-yl)piperazin-1-yl)ethoxy)ethoxy)ethyl)methanesulfonamide dihydrochoride] | < 200 nM | < 100 nM | < 100 nM | < 200 nM
CC(C)(OCCOCCN1CCN(c2nc(N)nc3c2CCc2cc(OCc4ccc(Cl)cc4)ccc2-3)CC1)C(=O)O [Example 122, 2-(2-(2-(4-(2-amino-8-((4-chlorobenzyl)oxy)-5,6-dihydrobenzo[h]quinazolin-4-yl)piperazin-1-yl)ethoxy)ethoxy)-2-methylpropanoic acid] | 200 to 2000 nM | 100 to 500 nM | < 100 nM | < 200 nM
Nc1nc2c(c(N3CCN(CCOCCOCC(=O)O)CC3)n1)CCc1cc(OCc3ccc(OC(F)(F)F)cc3)ccc1-2 [Example 143, 2-(2-(2-(4-(2-amino-8-((4-(trifluoromethoxy)benzyl)oxy)-5,6-dihydrobenzo[h]quinazolin-4-yl)piperazin-1-yl)ethoxy)ethoxy)acetic acid formate] | < 200 nM | < 100 nM | < 100 nM | < 200 nM
Nc1nc2c(c(N3CCN(CCOCC4CC5(C4)CC(C(=O)O)C5)CC3)n1)CCc1cc(OCc3ccc(Cl)cc3)ccc1-2 (stereo not drawn) [Example 152, 6-((2-(4-(2-amino-8-((4-chlorobenzyl)oxy)-5,6-dihydrobenzo[h]quinazolin-4-yl)piperazin-1-yl)ethoxy)methyl)spiro[3.3]heptane-2-carboxylic acid hydrochloride] | 200 to 2000 nM | < 100 nM | < 100 nM | < 200 nM
Nc1nc2c(c(N3CCN(CCOCCSCC(=O)O)CC3)n1)CCc1cc(OCc3ccc(OC(F)(F)F)cc3)ccc1-2 [Example 178, 2-((2-(2-(4-(2-amino-8-((4-(trifluoromethoxy)benzyl)oxy)-5,6-dihydrobenzo[h]quinazolin-4-yl)piperazin-1-yl)ethoxy)ethyl)thio)acetic acid] | < 200 nM | < 100 nM | < 100 nM | < 200 nM
[2H]C([2H])(C(=O)O)[C@H]1C[C@@H](OCCN2CCN(c3nc(N)nc4c3CCc3cc(OCc5ccc(OC(F)(F)F)cc5)ccc3-4)CC2)C1 [Example 184, cis-2-(3-(2-(4-(2-amino-8-((4-(trifluoromethoxy)benzyl)oxy)-5,6-dihydrobenzo[h]quinazolin-4-yl)piperazin-1-yl)ethoxy)cyclobutyl)acetic-c-2,2-d2 acid] | < 200 nM | < 100 nM | < 100 nM | < 200 nM
CN1CCN(c2nc(N)nc3c2CCc2cc(OCc4ccc(F)cc4)ccc2-3)CC1 [Example 196, 8-((4-fluorobenzyl)oxy)-4-(4-methylpiperazin-1-yl)-5,6-dihydrobenzo[h]quinazolin-2-amine] | < 200 nM | < 100 nM | < 100 nM | < 200 nM
CN1CCN(c2nc(N)nc3c2Cc2ccc(OCc4ccccc4)cc2-3)CC1 [Example 201, 8-(benzyloxy)-4-(4-methylpiperazin-1-yl)-5H-indeno[1,2-d]pyrimidin-2-amine] | < 200 nM | < 100 nM | < 100 nM | < 200 nM
